Test results: patent publication US20180280480A1, “COMPOSITIONS AND PEPTIDES HAVING DUAL GLP-1R AND GLP-2R AGONIST ACTIVITY” (priority 2014, published 2018)
Marks after values point to notes of the source that are not given here.

Legend:
Format in all cases: in vivo
[1] = test system: Diet Induced Obese (DIO) Sprague-Dawley Rats; assay: Body weight and whole body fat mass in DIO Sprague-Dawley rats; settings: for Body weight: mean ± S.E.M.; for Whole body fat mass: EchoMRI
Description: (§1) Thirty (30) male Sprague-Dawley rats (7 weeks of age) were purchased from Taconic (Denmark) and transferred to the Gubra animal unit. During the acclimatization period, the rats were housed two per cage under a 12:12 light dark cycle (lights on from 04.00-16.00 h) at controlled temperature conditions (22±1° C.; 50±10% relative humidity). Throughout the study the rats had ad libitum access to a two choice diet—regular Altromin 1324 rodent chow (Brogaarden, Denmark) and a paste made from Chocolate spread (Nutella, Ferrero Italy), peanut butter and powdered regular Altromin 1324 rodent chow (Brogaarden, Denmark). The animals were kept on the diet for 65 weeks before experimentation. Animals were switched to single housing during the entire study period (day −6 to 25).
The animals were randomized into three study groups (n=10 per group) based on body weight recorded on day −1 to participate in one of the following groups: Group 1: Vehicle, SC, BID. Group 2: SEQ ID NO 6, 82 nmol/kg (day 2-7), 164 nmol/kg (day 8-14) and 328 nmol/kg (day 15-25), SC, BID. […] Dosing took place in the morning (between 06.00 and 08.00 h) and prior to lights out in the afternoon (between 13.30 and 14.00 h). Doses were administered subcutaneously with a dose volume 1 ml/kg. All rats were handled prior to experimentation to acclimatize the animals to handling and procedures. Body weight was measured from day −3 to termination on day 25. Total body fat mass was analyzed before study start (day −1) and before termination (study day 25) by non-invasive EchoMRI-900 (EchoMRI, USA). On day 23 of the study, rats were subjected to an oral glucose tolerance test (OGTT). Animals were mildly fasted as all food was removed 4 hours prior to the oral glucose load. Vehicle and compounds were administered subcutaneously (SC) 2 hours prior to the OGTT. At t=0 rats received an oral glucose load (2 g/kg; 4 ml/kg; […], Fresenius Kabi, Sweden). Glucose was given as gavage via a gastrically-placed tube connected to a syringe ensuring accurate dosing. Blood glucose was measured from tail vein blood before (t=−120 and 0 min, baseline) and after glucose administration (t=15, 30, 60 and 120 min). Blood samples was collected into 10 μl heparinized glass capillary tubes and immediately suspended in buffer (0.5 ml of glucose/lactate system solution (EKF-diagnostics, Germany) and analyzed for glucose on the test day using a BIOSEN c-Line glucose meter (EKF-diagnostics, Germany) according to manufacturer's instructions. On study day 25, the rats were terminated and the GI tract was removed. Intestines were flushed with saline, weighed and then fixated in 4% PFA for determination of small and large intestinal volume by stereological methods as described by Hansen et al. 2013, Am J Transl Res 5(3): 347-58).

[2] = test system: C57BL/6J mice; assay: GLP1R-GLP2R dual agonist compound study: cumulative food intake
Description: Forty (40, n=10, 4 groups) male C57BL/6J mice obtained from Taconic, Denmark, were used. At the time of the experiment, the mice had reached an age of 9-10 weeks. The mice were acclimatized for one week in their new environment and offered regular chow diet (Altromin 1324, Brogaarden A/S, Denmark) and domestic quality tap water. Animals were housed two per cage during the study, in a light-, temperature-, and humidity-controlled room (12-hour light: 12-hour dark cycle, lights on/off at 4 AM/4 PM hour; 22±1° C.; 50±10% relative humidity). […] Animals were uniquely identified with implantable microchips (Pet ID Microchip, E-vet) in all mice upon arrival. Animals were identified using the WS-2 weight station (MBrose ApS, Faaborg, Denmark) connected to a laptop running the HM02Lab software (Ellegaard Systems, Faaborg, Denmark). The HM02Lab software matches the body weight with ID and calculates the dose directly based on the body weight. All mice were handled for 3 days prior to the experiment to acclimatize the animals to handling and injections.

[3] = test system: C57BL/6J mice; assay: GLP1R-GLP2R dual agonist compound study: gut wet weight
Description: On study day 8, the mice were terminated and the GI tract was removed for determination of the gut wet weight. The gut wet weight results are listed below in Table 12.

[4] = test system: diabetic db/db (BKS.Cg-m+/+Leprdb/J) male mice; assay: Oral glucose tolerance test in diabetic db/db mice; settings: for Blood glucose during an oral glucose tolerance test. Area under the curve (AUC) −240 to 240 min.: Day 56, mean ± S.E.M.
Description: A total of forty-six (46) diabetic db/db (BKS.Cg-m+/+Leprdb/J) male mice, 5 weeks old at arrival, was obtained from Janvier (France). The mice were acclimatized for two weeks in their new environment with free access to normal chow (Altromin 1324, Brogaarden A/S, Gentofte, Denmark) and domestic quality tap water. They were housed in groups of n=2 in a light-, temperature-, and humidity-controlled room (12-hour light: 12-hour dark cycle, lights On/Off at 04.00/16.00 h; 22±1° C.; 50±10% relative humidity). During the habituation period animals was accustomed to the experimental paradigm.
Baseline, free fed blood glucose samples were obtained bi-weekly prior to study start (blood was collected from the tail vein) in order to screen for the diabetic state. The 40 animals closest to the mean BG/BW value at day −3 were randomized into 4 groups (n=10/group; the remaining 6 animals was be discarded from the main study): Group 1: Vehicle, BID, SC. Group 2: SEQ ID NO 6, 50 nmol/kg, BID, SC. Group 3: SEQ ID NO 6, 250 nmol/kg, BID, SC. […] During day 0-58 of the experiment, animals received a subcutaneous dosing twice daily at 06.00-08.00 hours and again between 02.00-04.00 hours. Dose volume was 5 ml/kg.
On experimental day 56 an oral glucose tolerance test was performed. Animals were mildly fasted as food was removed 4 hours prior to administration of the glucose bolus. Compounds were administered 45 minutes prior to the OGTT. At t=0, mice received an oral glucose load of 2 g/kg glucose (Glucose 200 mg/ml, Fresenius Kabi, Sweden). Glucose was given as gavage via a gastrically placed tube connected to a syringe ensuring accurate dosing. Blood samples were collected from the tail vein and blood-glucose was measured at time points −60, 0, 15, 30, 60, 120 and 240 minutes after the glucose administration. Samples for measuring HbA1c was taken in parallel with blood glucose at t=−60 minutes. Mice were re-fed after the last blood sampling.

[5] = test system: Diet Induced Obese (DIO) Sprague-Dawley Rats; assay: Oral glucose tolerance test in DIO Sprague-Dawley rats
[6] = test system: Diet Induced Obese (DIO) Sprague-Dawley Rats; assay: Small and large intestinal volume (stereology) in DIO Sprague-Dawley rats
Description: as §1
The animals were randomized into three study groups (n=10 per group) based on body weight recorded on day −1 to participate in one of the following groups: Group 1: Vehicle, SC, BID. Group 2: SEQ ID NO 6, 82 nmol/kg (day 2-7), 164 nmol/kg (day 8-14) and 328 nmol/kg (day 15-25), SC, BID. […] Body weight was measured from day −3 to termination on day 25. Total body fat mass was analyzed before study start (day −1) and before termination (study day 25) by non-invasive EchoMRI-900 (EchoMRI, USA). […] Blood glucose was measured from tail vein blood before (t=−120 and 0 min, baseline) and after glucose administration (t=15, 30, 60 and 120 min). Blood samples was collected into 10 μl heparinized glass capillary tubes and immediately suspended in buffer (0.5 ml of glucose/lactate system solution (EKF-diagnostics, Germany) and analyzed for glucose on the test day using a BIOSEN c-Line glucose meter (EKF-diagnostics, Germany) according to manufacturer's instructions. On study day 25, the rats were terminated and the GI tract was removed. Intestines were flushed with saline, weighed and then fixated in 4% PFA for determination of small and large intestinal volume by stereological methods as described by Hansen et al. 2013, Am J Transl Res 5(3): 347-58).

[7] = Day 25, 328 nmol/kg (escalated 82, 164, 328 nmol/kg SC BID)
[8] = Day 25, 328 nmol/kg, mean ± S.E.M.

For “R^1-HGDGSFTSELSTYLDALAARDFIAWLIQTKITDR^2 [SEQ ID NO 6]”, the Body weight ([1]; Day 0 (baseline), 328 nmol/kg group (escalated 82, 164, 328 nmol/kg SC BID)) was 962.7 ± 27.8 g, the “Whole body fat mass” value [1, 7] was 292.2 ± 25.4 g and the Body weight [1, 7] was 803.9 ± 35.5 g. For the same substance, the “Whole body fat mass” value ([1]; Day −1 (baseline), 328 nmol/kg group (escalated 82, 164, 328 nmol/kg SC BID)) was 400.3 ± 18.3 g, the Cumulative food intake ([2]; Day 0-7, 3.0 mg/kg BID SC, mean ± S.E.M.) was 21.96 ± 1.46 g and the “cumulative food intake compared to vehicle and teduglutide” value ([2]; dosed twice daily for 7 days) was “considerably reduced cumulative food intake”. For the same substance, the Gut wet weight ([3]; Day 8, 3.0 mg/kg BID SC, mean ± S.E.M.) was 3.8 ± 0.3 g, the “gut wet weight compared to vehicle and teduglutide” value ([3]; dosed twice daily for 8 days) was “significantly increased the gut wet weight” and the “glucose tolerance compared to liraglutide” value ([4]; 250 nmol/kg, P=0.03, Student's t-test) was “even further improved glucose tolerance compared to animals treated with liraglutide”. The “Blood glucose during an oral glucose tolerance test. Area under the curve (AUC) −240 to 240 min.” value ([4]; 50 nmol/kg BID SC) was 3543 ± 469 mmol·min/L, the “Blood glucose during an oral glucose tolerance test. Area under the curve (AUC) −240 to 240 min.” value ([4]; 250 nmol/kg BID SC) was 2472 ± 119 mmol·min/L and the “effect on glucose tolerance” value ([5]; DIO rats, Table 15) was “improved glucose tolerance”. The “Blood glucose during an oral glucose tolerance test. Area under the curve (AUC) −45 to 240 min.” value ([5]; Day 23, 328 nmol/kg, mean ± S.E.M.) was 1731 ± 77.0 mmol·min/L, the Large intestine volume [6, 8] was 2.64 ± 0.17 cm^3 and the Small intestine volume [6, 8] was 8.50 ± 0.62*** cm^3. For the same substance, the “effect on small intestine volume” value ([6]; treatment for 25 days, stereology) was “striking increase in small intestine volume”.
